Data reported in patent US20040242550A1, “Means and method for hormonal contraception” (priority 2001, published 2004).

Experiment: conversion factors for progestogens: amount equivalent to a given amount of levonorgestrel
Conditions: for equivalent to 30 μg levonorgestrel / equivalent to 750 μg levonorgestrel: estimated amount of progestogen; for Conversion factor: relative to levonorgestrel, for guidance, estimate
Description: In order to determine for a specific biogenic estrogen or synthetic estrogen the amounts that are equivalent to a cited amount of ethinyl estradiol or 17beta-estradiol, the method described by Allen and Doisy may suitably be used (Allen A., Doisy E. A., “An ovarian hormone. Preliminary report on its localization, extraction and partial purification, and action in test animals. JAMA (1923), 81, 819-821). Similarly, in order to determine for a given progestogen the amount equivalent to cited amount of levonorgestrel the method originally described by McPhail can be used (Mc Phail M. K. “The assay of progestin” J Physiol (1934), 83, 145-156). A more recent description of this method can be found in an article written by Overbeek G. A., de Visser J. “A new substance with progestational activity”, Acta Endocrinol (1956), 22, 318-329. It is noted that the aforementioned methods will provide useful indications about the anticipated estrogen potency or progestogen potency of a particular hormone. However, to accurately determine the equivalent amounts that are referred to above, it is advisable to additionally conduct in vivo studies in human females.
For guidance the table below provides the conversion factors for a number of progestogens that may suitably be used in the method of the invention. These conversion factors may be used to calculate, for each progestogen mentioned in the table, an estimate of the amount of said progestogen which is equivalent to a given amount of levonorgestrel.

Row | SMILES | equivalent to 30 μg levonorgestrel | equivalent to 750 μg levonorgestrel | Conversion factor
1 | CC(=O)[C@H]1CC[C@H]2[C@@H]3C=CC4=CC(=O)CC[C@@]4(C)[C@@H]3CC[C@]12C [dydrogesterone] | 4000 µg | 100 mg | 133
2 | C#C[C@]1(OC(C)=O)CC[C@H]2[C@@H]3CCC4=CC(=NO)CC[C@@H]4[C@H]3CC[C@@]21CC (mixture of isomers) [norgestimate] | 51 µg | 1.275 mg | 1.7
3 | C[C@]12CCC(=O)C=C1[C@@H]1C[C@@H]1[C@H]1[C@@H]3[C@@H]4C[C@@H]4[C@@]4(CCC(=O)O4)[C@@]3(C)CC[C@@H]12 [drospirenone] | 600 µg | 15 mg | 20
4 | C#C[C@]1(O)CC[C@H]2[C@@H]3CCC4=CC(=O)CC[C@@H]4[C@H]3CC[C@@]21C [norethisterone] | 210 µg | 5.25 mg | 7
